The term inhibition denotes the change of the read-out against control, counted positive when it falls. A higher inhibition goes with a response far below the control.

The text below walks through data of patent US5670506A, “Halogen, isothiocyanate or azide substituted xanthines” (Cell Therapeutics, Inc., priority 1993, dated 1997).

Assay [1] concerns TNF release from monocytes in whole blood. The assay is described as follows: ex vivo human TNF model, LPS-mediated TNF release in whole blood. It is filed as cell-based. The settings on record: FIG. 14. The method, then:
This model adds LPS to whole blood (normal human volunteers) to trigger a dose-dependent synthesis and extracellular release of TNF according to Desch et al. (Lymphokine Res. 8:141, 1989). The ex vivo model examines whether LPS-mediated release of TNF from monocytes in whole blood can be block by an inventive compound.
An ex vivo human sepsis model is described in Desch et al., Lymphokine Res. 8:141, 1989 and in Ooi et al., J. Exp. Med. 174:649, 1991. Briefly, whole blood from humans is incubated with LPS (endotoxin). TNF released from cells (mostly from monocytes) is measured. The inventive compounds lower TNF levels as compared with untreated controls in this model.
This example illustrates a comparative experiment comparing CT1595, CT1529 and CT2519 in an ex vivo human TNF model described herein. This assay is a predictive model for treatment and prevention of septic shock and sepsis syndrome. This model adds LPS to whole blood (normal human volunteers) to trigger a dose-dependent synthesis and extracellular release of TNF according to Desch et al. (Lymphokine Res. 8:141, 1989). The ex vivo model examines whether LPS-mediated release of TNF from monocytes in whole blood can be block by an inventive compound.

The test system of assay [2] is mast cells. As to the kind of experiment: mast cell degranulation, serotonin release assay. The format is cell-based. The source says:
A serotonin release assay is utilized to study the utility of the inventive compounds for treatment of asthma and allergy. This assay measures mast cell degranulation, which is an early phase reaction to allergen challenge. Mast cells grown in tissue culture are first loaded with ^3 H serotonin, which is incorporated into the granules in the cells. The mast cells are sensitized with antigen specific monoclonal IgE, and then triggered to degranulate with the specific antigen (dinitrophenol bound to BSA (DNP)). When the cells degranulate, ^3 H Serotonin is released into the medium, and can be measured directly. The ability of the inventive compounds to inhibit the degranulation response is determined by the decrease in ^3 H Serotonin released in the presence of drug and is represented as % INHIBITION. The IC50 of any given compound is determined by the ability of that compound to inhibit degranulation by 50%.
Specifically, the serotonin release assay seeds 2×10^5 cells in 0.5 ml medium in duplicate for spontaneous release, IgE+DNP, IgE+DNP+EtOH (vehicle control), and inventive compounds. One μCi [^3H ]-Serotonin/ml (i.e., 0.5 μCi/well) (NEN Research Products, cat. #NET-398 Hydroxytryptamine Binoxalate, 5-[1,2-^3 H(N)]-(Serotonin Binoxalate, [1,2-^3 H(N)]-)) and 1 μl/ml IgE is added. The cells are incubated for 18 hours at 37° C. in 5% CO2, washed twice with 0.5 ml Isotonic Buffer (25 mM disodium PIPES pH 7.1,100 mM NaCl, 5 mM KCl, 5 mM glucose, 0.4 mM MgCl2, 1 mM CaCl2, 0.1% BSA), and sterile filtered. 250 μl Isotonic Buffer is added per well and the plates are equilibrated in an incubator for about 10 min. Drug is added and cells are activated with 40 ng/ml DNP-BSA (1 mg/ml Diluted 1:200 in Isotonic Buffer) for 45 minutes using 2 μl/250 μl. Spontaneous release is determined in incubated cells with 250 μl Isotonic Buffer for 45 minutes and the reaction is stopped by removing supernatant and centrifuging at ~4000 rpm in microfuge for 15 seconds to remove any detached cells. Released radiolableled serotonin is counted. To determine amount of ^3 H-serotonin incorporated into the cells, (a) remove Isotonic Buffer and lyse cells by adding 250 μl 1% Triton-X100 in PBS, (b) add to 5 ml scintillation fluid, (c) wash 2× with Triton/PBS, and (d) add washes to scintillation tube. Percent serotonin release is calculated by dividing the amount of released serotonin by the sum of incorporated plus released serotonin and correcting for spontaneous released serotonin. Compound inhibition is calculated by dividing the percent serotonin release in the presence of a compound by the percent serotonin release in the absence of the compound.
This assay is described above and provides an in vitro model for an allergy and asthma therapeutic compound.

In the case of `Cn1cnc2c1c(=O)n(CCCCC(=O)CCl)c(=O)n2C` [CT1595, 1-(6-chloro-5-oxohexyl)-3,7-dimethylxanthine], in assay [1], the “block of LPS-mediated TNF release” value is reported as “could block TNF release in a dose-dependent fashion”. For the same compound, 50 µM produced 44% inhibition in assay [2] (50 μM). The inhibition at 100 µM in assay [2] (100 μM) came to 88%.
